# Results reported in PubChem BioAssay AID256 (DTP/NCI, 2004).
# “And” between values parts separate entries of the source, which are not always exact repeats. Equal entries are not always repeated. Inconclusive results and toxic doses are left out.
# Test system: CD2F1 mice, L1210 leukemia ip, survival T/C
# Assay: NCI In Vivo Anticancer Drug Screen. Data for tumor model L1210 Leukemia (intraperitoneal) in CD2F1 (CDF1) mice
# Settings: endpoint: mean survival time, higher = longer survival
# Outline: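 Each value reflects a quotient of treated over vehicle control outcomes in mice with a transplanted tumor.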
# [1] = dose: 50.0 mg/kg/injection, schedule: Q01DX009 (ip), vehicle: saline with Tween-80
# [2] = dose: 100.0 mg/kg/injection, schedule: Q01DX009 (ip), vehicle: saline with Tween-80
# [3] = dose: 200.0 mg/kg/injection, schedule: Q01DX009 (ip), vehicle: saline with Tween-80
# [4] = dose: 400.0 mg/kg/injection, schedule: Q01DX009 (ip), vehicle: saline with Tween-80
# [5] = dose: 100.0 mg/kg/injection, schedule: Q04DX003 (ip), vehicle: saline with Tween-80
# [6] = dose: 200.0 mg/kg/injection, schedule: Q04DX003 (ip), vehicle: saline with Tween-80
# [7] = dose: 400.0 mg/kg/injection, schedule: Q04DX003 (ip), vehicle: saline with Tween-80
# [8] = dose: 200.0 mg/kg/injection, schedule: Q01DX009 (ip), vehicle: saline
# [9] = dose: 100.0 mg/kg/injection, schedule: Q04DX002 (ip), vehicle: saline with Tween-80
# [10] = dose: 200.0 mg/kg/injection, schedule: Q04DX002 (ip), vehicle: saline with Tween-80
# [11] = dose: 100.0 mg/kg/injection, schedule: Q01DX001 (ip), vehicle: saline with Tween-80
# [12] = dose: 200.0 mg/kg/injection, schedule: Q01DX001 (ip), vehicle: saline with Tween-80
# [13] = dose: 400.0 mg/kg/injection, schedule: Q01DX001 (ip), vehicle: saline with Tween-80
# [14] = dose: 100.0 mg/kg/injection, schedule: Q01DX009 (ip), vehicle: saline
# [15] = dose: 100.0 mg/kg/injection, schedule: Q01DX001 (ip), vehicle: saline
# [16] = dose: 200.0 mg/kg/injection, schedule: Q01DX001 (ip), vehicle: saline
smiles,measurement,setting,value
CCCCNC(=S)Nc1ccccc1,T/C,[1],100 % of control
same,T/C,[2],105 % of control
same,T/C,[3],86 % of control
Nc1nn[nH]n1,T/C,[2],95 % of control
same,T/C,[3],90 % of control
same,T/C,[4],94 % of control
N#Cc1cnoc1N,T/C,[2],112 % of control
same,T/C,[3],114 % of control
same,T/C,[4],109 % of control
CC(C)NC(=O)C1C=C2c3cccc4c3C(CN4)CC2N(C)C1 (stereo unspecified),T/C,[1],93 % of control
same,T/C,"dose: 50.0 mg/kg/injection, schedule: Q04DX003 (ip), vehicle: saline",94 % of control
same,T/C,[2],100 % of control
same,T/C,"dose: 100.0 mg/kg/injection, schedule: Q04DX003 (ip), vehicle: saline",88 % of control
same,T/C,[3],97 % of control
same,T/C,"dose: 200.0 mg/kg/injection, schedule: Q04DX003 (ip), vehicle: saline",94 % of control
O=C(NCCC1CC=CCC1)c1ccccc1 (stereo unspecified),T/C,[2],97 % of control
same,T/C,[3],95 % of control
same,T/C,[4],103 % of control
COc1ccc(NC(=O)CCC(=O)Oc2ccccc2)cc1,T/C,[2],94 % of control
same,T/C,[5],100 % of control
same,T/C,[3],97 % of control
same,T/C,[6],100 % of control
same,T/C,[4],94 % of control
same,T/C,[7],94 % of control
Cn1ncc2c1NC(c1ccc(F)cc1)SCC2=O (stereo unspecified),T/C,"dose: 25.0 mg/kg/injection, schedule: Q01DX009 (ip), vehicle: gum acacia",95 % of control and 96 % of control
same,T/C,"dose: 50.0 mg/kg/injection, schedule: Q01DX009 (ip), vehicle: gum acacia",97 % of control and 101 % of control
same,T/C,"dose: 100.0 mg/kg/injection, schedule: Q01DX009 (ip), vehicle: gum acacia",92 % of control and 95 % of control and 103 % of control
same,T/C,"dose: 200.0 mg/kg/injection, schedule: Q01DX009 (ip), vehicle: gum acacia",96 % of control and 104 % of control
same,T/C,"dose: 400.0 mg/kg/injection, schedule: Q01DX009 (ip), vehicle: gum acacia",100 % of control
C[C@]12CC[C@@H]3c4ccc(OC5CCCCO5)cc4CC[C@H]3[C@@H]1CC[C@@H]2O (stereo partly specified),T/C,"dose: 600.0 mg/kg/injection, schedule: Q01DX Z (ip), vehicle: steriod suspending solution",108 % of control
same,T/C,"dose: 800.0 mg/kg/injection, schedule: Q01DX Z (ip), vehicle: steriod suspending solution",101 % of control
Cc1cc(=O)[nH]c(O)c1C#N,T/C,[5],96 % of control
same,T/C,[6],94 % of control
same,T/C,[7],94 % of control
NC(CCC(=O)NC(CSC(c1ccccc1)(c1ccccc1)c1ccc(F)cc1)C(=O)NCC(=O)O)C(=O)O (stereo unspecified),T/C,"dose: 25.0 mg/kg/injection, schedule: Q01DX009 (ip), vehicle: saline",120 % of control
same,T/C,[8],150 % of control
N#CCc1ccc(N=Nc2c(N)nc(N)[nH]c2=O)cc1,T/C,[2],99 % of control
same,T/C,[3],96 % of control
same,T/C,[4],87 % of control
Cc1cn(C2CC3[O][Sn]([CH3])([CH3])[O]CC3O2)c(=O)[nH]c1=O (stereo unspecified),T/C,"dose: 12.5 mg/kg/injection, schedule: Q01DX005 (ip), vehicle: other",105 % of control
same,T/C,"dose: 25.0 mg/kg/injection, schedule: Q01DX005 (ip), vehicle: other",108 % of control
same,T/C,"dose: 50.0 mg/kg/injection, schedule: Q01DX005 (ip), vehicle: other",103 % of control
CC(=O)Nc1ccc(/C=N/NC(=O)CNC(=O)Nc2ccc(Cl)c(Cl)c2)cc1,T/C,[2],95 % of control
same,T/C,[3],100 % of control
same,T/C,[4],109 % of control
C=CC=O,T/C,"dose: 1.87 mg/kg/injection, schedule: Q01DX009 (ip), vehicle: saline",92 % of control
CN(C)C(=O)N(c1ccccc1)c1ccccc1,T/C,[9],98 % of control
same,T/C,[10],90 % of control
Nc1ccccc1C(=O)O,T/C,[11],97 % of control
same,T/C,[12],100 % of control
same,T/C,[13],100 % of control
Cc1c[n+](Cc2ccccc2)ccn1,T/C,"dose: 75.0 mg/kg/injection, schedule: Q01DX001 (ip), vehicle: saline",102 % of control
same,T/C,"dose: 150.0 mg/kg/injection, schedule: Q01DX001 (ip), vehicle: saline",102 % of control
same,T/C,"dose: 300.0 mg/kg/injection, schedule: Q01DX001 (ip), vehicle: saline",98 % of control
O=c1[nH]cc(C(O)Cc2ccccc2)c(=O)[nH]1 (stereo unspecified),T/C,[2],97 % of control
same,T/C,[5],104 % of control
same,T/C,[3],100 % of control
same,T/C,[6],94 % of control
same,T/C,[4],97 % of control
same,T/C,[7],98 % of control
O=C(O)C(CSC(c1ccccc1)(c1ccccc1)c1ccccc1)N=Cc1cccs1 (stereo unspecified),T/C,"dose: 12.5 mg/kg/injection, schedule: Q01DX009 (ip), vehicle: saline",109 % of control
same,T/C,"dose: 12.5 mg/kg/injection, schedule: Q01DX009 (ip), vehicle: suspension in saline",113 % of control
same,T/C,"dose: 25.0 mg/kg/injection, schedule: Q01DX009 (ip), vehicle: suspension in saline",111 % of control
same,T/C,"dose: 66.0 mg/kg/injection, schedule: Q01DX009 (ip), vehicle: saline",163 % of control
same,T/C,[2],172 % of control
same,T/C,[14],163 % of control
same,T/C,"dose: 100.0 mg/kg/injection, schedule: Q01DX009 (ip), vehicle: suspension in saline",173 % of control
same,T/C,[3],118 % of control
same,T/C,[8],90 % of control
same,T/C,"dose: 200.0 mg/kg/injection, schedule: Q01DX009 (ip), vehicle: suspension in saline",94 % of control
CC1(C)CC2(OC2c2ccccc2[N+](=O)[O-])C(=O)c2ccccc21 (stereo unspecified),T/C,[2],98 % of control
same,T/C,[5],96 % of control
same,T/C,[3],96 % of control
same,T/C,[6],98 % of control
same,T/C,[4],96 % of control
same,T/C,[7],91 % of control
CCOP(=S)(OCC)OP(=S)(OCC)OCC,T/C,"dose: 4.0 mg/kg/injection, schedule: Q04DX003 (ip), vehicle: other",95 % of control
NC(=O)c1ncn(C2OC(COP(=O)(O)O)C(O)C2O)c1N (stereo unspecified),T/C,"dose: 12.5 mg/kg/injection, schedule: Q01DX005 (ip), vehicle: water",97 % of control
same,T/C,"dose: 25.0 mg/kg/injection, schedule: Q01DX005 (ip), vehicle: water",96 % of control
same,T/C,"dose: 50.0 mg/kg/injection, schedule: Q01DX005 (ip), vehicle: water",102 % of control
same,T/C,[15],102 % of control
same,T/C,"dose: 100.0 mg/kg/injection, schedule: Q01DX005 (ip), vehicle: water",94 % of control
same,T/C,[16],95 % of control
same,T/C,"dose: 200.0 mg/kg/injection, schedule: Q01DX005 (ip), vehicle: water",100 % of control
same,T/C,"dose: 400.0 mg/kg/injection, schedule: Q01DX001 (ip), vehicle: saline",101 % of control
CCC(/C=N\O)CC,T/C,[15],100 % of control
same,T/C,[16],108 % of control
CC(=O)Nc1ccc2nc3ccc(NC(C)=O)cc3[n+](-c3ccccc3)c2c1,T/C,"dose: 16.0 mg/kg/injection, schedule: Q01DX008 (iv), vehicle: saline",98 % of control
same,T/C,"dose: 25.0 mg/kg/injection, schedule: Q03DX003 (ip), vehicle: saline",118 % of control
same,T/C,"dose: 25.0 mg/kg/injection, schedule: Q04DX003 (ip), vehicle: saline",123 % of control
same,T/C,"dose: 32.0 mg/kg/injection, schedule: Q01DX008 (iv), vehicle: saline",100 % of control
same,T/C,"dose: 50.0 mg/kg/injection, schedule: Q01DX007 (ip), vehicle: saline",155 % of control
same,T/C,"dose: 50.0 mg/kg/injection, schedule: Q01DX009 (ip), vehicle: saline",157 % of control
same,T/C,"dose: 64.0 mg/kg/injection, schedule: Q01DX008 (iv), vehicle: saline",115 % of control
same,T/C,"dose: 100.0 mg/kg/injection, schedule: Q01DX007 (ip), vehicle: saline",183 % of control
same,T/C,[14],155 % of control
O=[N+]([O-])c1ccc(Sc2ccc(Br)cc2)cc1,T/C,[11],97 % of control
same,T/C,[12],106 % of control
same,T/C,[13],104 % of control
O=C=NC(=O)c1ccccc1,T/C,[9],96 % of control
same,T/C,[10],100 % of control
same,T/C,"dose: 400.0 mg/kg/injection, schedule: Q04DX002 (ip), vehicle: saline with Tween-80",118 % of control
Cc1ccc(-c2c(O)c(Br)c(-c3ccc(C)cc3C)c(O)c2Br)c(C)c1,T/C,[2],97 % of control
same,T/C,[5],93 % of control
same,T/C,[3],97 % of control
same,T/C,[6],90 % of control
same,T/C,[4],94 % of control
same,T/C,[7],92 % of control
COC(=O)CCC(=O)Nc1ccccc1C(C)=O,T/C,[2],101 % of control
same,T/C,[3],104 % of control
same,T/C,[4],106 % of control
NC1=NC(CCc2ccccc2)N(c2ccc3ccccc3c2)C(N)=N1 (stereo unspecified),T/C,"dose: 4.7 mg/kg/injection, schedule: Q04DX003 (ip), vehicle: saline",104 % of control
same,T/C,"dose: 9.4 mg/kg/injection, schedule: Q04DX003 (ip), vehicle: saline",100 % of control
same,T/C,"dose: 18.8 mg/kg/injection, schedule: Q04DX003 (ip), vehicle: saline",100 % of control
COc1cc2c(cc1OC)C1c3cc(OC)c(OC)cc3CCN1CC2,T/C,"dose: 12.5 mg/kg/injection, schedule: Q01DX009 (ip), vehicle: other",103 % of control
same,T/C,"dose: 25.0 mg/kg/injection, schedule: Q01DX009 (ip), vehicle: other",94 % of control
